Results taken from patent US12357668B2, “Anticancer activity of Buddleja saligna compositions” (University of Pretoria, priority 2019, dated 2025).
≈ marks a conversion by molar mass, not a printed value. Blank lines part the entries; values can stand above or below the compound they belong to. Numbered stars: 1 amine (or outer) side, 2 acyl side, 3 side chain; on linkers, the order of the positions; unused ones are H or OH. Bridge positions count the residues as written; N and C are the ends. Square brackets hold non-standard residues; d marks the D form. Peptide text beside a SMILES is read from it. I, II: the chains in the order shown. Actinocin(9to1) = Cc1c2oc3c(C)ccc(C(=O)[*:1])c3nc-2c(C(=O)[*:2])c(N)c1=O; NMeV = CN[C@H](C(=O)O)C(C)C; Sar = CNCC(=O)O

How the values were obtained:
SK-MEL-2 melanoma = conditions: SK-MEL-2 CAM model; Caunii et al., 2017; cited from earlier work
[1] = tested on: UCT-MEL-1 (human pigmented melanoma) cells; assay: XTT antiproliferative assay, human melanoma cells; assay type: cell-based; conditions: HaCat versus UCT-MEL-1 IC50
Description: To investigate the antiproliferative potential of B. saligna and DT-BS-01, the XTT assay was performed. Antiproliferative activity was measured using the method as described by Berrington and Lall (2012) using the XTT Cell Proliferation Kit II. Cells were seeded at a concentration of 1.0×10^6 cells/ml in 96-well plates (100 μl) and allowed to adhere for 24 h. The B. saligna extract and DT-BS-01 were prepared at stock concentrations of 20 mg/ml, serially diluted and added to the 96-well plates at final concentrations ranging from 1.56-200 μg/ml. […] Cells were incubated for a further 72 h with the respective samples and controls. […] Blank plates were included which were prepared in the same manner as mentioned above, without the additional of cell, to allow for colour compensation of the samples. The samples were tested in triplicate and the percentage cell viability was calculated using the following equation. […] Where Abscontrol is the absorbance of XTT+vehicle control and Absample is the absorbance of (XTT+sample OR positive control)-(blank values of corresponding sample). […] The XTT colorimetric assay is based on the ability of viable metabolically active cells to convert a yellow tetrazolium salt to an orange formazan dye. […]

[2] = tested on: HaCat (human keratinocytes) cells; assay: XTT antiproliferative assay, human keratinocytes; assay type: cell-based; conditions: 72 h exposure
Description: The cell lines were maintained in culture flasks containing Dulbecco's modified Eagle's medium (DMEM) supplemented with 10%, heat-inactivated fetal bovine serum (FBS) and 100 U/ml penicillin, 100 μg/ml streptomycin and 250 μg/ml fungizone at 37° C. and 5%, CO2. Cells were sub-cultured once an 80%, confluent monolayer had formed using trypsin-EDTA (0.25%, trypsin containing 0.01%, EDTA).
To investigate the antiproliferative potential of B. saligna and DT-BS-01, the XTT assay was performed. Antiproliferative activity was measured using the method as described by Berrington and Lall (2012) using the XTT Cell Proliferation Kit II. […] Thereafter, 50 μl XTT (0.3 mg/ml) was added to the cells and incubated for 2 h where after the absorbance was measured at 490 nm (reference wavelength of 690 nm) using a BIO-TEK power-wave XS plate reader (A.D.P, Weltevreden Park, South Africa). […] The samples were tested in triplicate and the percentage cell viability was calculated using the following equation.
Where Abscontrol is the absorbance of XTT+vehicle control and Absample is the absorbance of (XTT+sample OR positive control)−(blank values of corresponding sample). The fifty percent inhibitory concentrations (IC50) were calculated from the % cell viability using the GraphPad Prism 4 software. […]

HaCat cells [3] = assay: Light microscopy (haematoxylin and eosin staining), cell morphology; assay type: cell-based, human; conditions: 0.025 μg/ml, 48 h
Description: (§1) One of the hallmarks of cancer cells is their ability to evade apoptosis, therefore providing a suitable target for the destruction of cancer cells. The effect of B. saligna and DT-BS-01 on the morphology of UCT-MEL-1 and HaCat cells was determined using light microscopy. Light microscopy (haematoxylin and eosin staining) was used to determine the qualitative effect B. saligna (30 and 60 μg/ml) and DT-BS-01 (5 and 20 μg/ml) on the morphology of UCT-MEL-1 and HaCat cells. […] Exponentially growing UCT-MEL-1 and HaCat cells were seeded at 1.0×10^5 cells per well in a 6-well plate and incubated for 24 h at 37° C. at 5% CO2 to allow for cell adherence. […] Cells were stained (in the 6-well plate) as described by Berrington & Lall (2012). After staining, sterile PBS was added to all the wells and immediately analysed for morphological changes using a light microscope (Zeiss Primovert).
(§2) Light microscopy was performed in order to determine whether cell death, induced by B. saligna and the DT-BS-01 was mediated through apoptosis (FIG. 2 and FIG. 3). Apoptosis is described as a programmed cell death in which biochemical and morphological changes occur within the cells. […]

UCT-MEL-1 cells [4] = assay: as above; assay type: cell-based, human; conditions: 0.025 μg/ml, 48 h
Description: as §1, §2

HaCat cells [5] = assay: Flow cytometry apoptosis detection (Annexin V / 7-AAD); assay type: cell-based, human; conditions: 0.025 μg/ml, 48 h
From the text: (§3) Phosphatidylserine (PS) is a lipid, which is present in the inner leaflet of the plasma membrane. The early stages of apoptosis are characterized by an asymmetric membrane due to the translocation of the PS lipid from the inner membrane leaflet to the outer leaflet. Once exposed to the outer cellular environment, Annexin V, which has a high affinity for PS, is able to bind to it. After the early stages of apoptosis have taken place, the plasma membrane integrity starts to disintegrate thereby allowing the uptake of 7-AAD into the cell, which is associated with late apoptosis or necrosis. […] Using Annexin V and 7-AAD staining can therefore, not distinguish between late apoptosis or necrosis, however can characterize early apoptosis. The degree of apoptosis was thus measured using the Annexin V-FITC apoptosis detection kit. […] Actinomycin D (0.025 μg/ml) was used as a positive control for apoptosis to occur. Other controls included a medium (untreated) and 0.25% DMSO vehicle control. […] An additional 400 μl binding buffer was added to each culture tube and the fluorescence was measured using an Accuri C6 flow cytometer (BD Biosciences, San Jose, CA, USA). Data from at least 10,000 cells were analyzed using the BD Accuri C6 software.

UCT-MEL-1 cells [6] = assay: as above; assay type: cell-based, human; conditions: 0.025 μg/ml, 48 h
From the text: as §3

[7] = tested on: vascular endothelial growth factor (VEGF); assay: Quantification of in vitro VEGF in HaCat cells (ELISA); assay type: cell-based; conditions: Homo sapiens, 6 μg/ml, 6 h, read-out: inhibition of VEGF production
Description: (§4) Exponentially growing UCT-MEL-1 and HaCat cells were seeded at a concentration of 1.0×10^5 cells/well in a 24-well plate with complete medium to allow for cell adherence. After 24 h, the medium was removed and replaced with fresh complete medium. Stock concentrations of the B. saligna extract and DT-BS-01 were prepared at 1 mg/ml. The cells were treated with final concentrations of the B. saligna at 30 and 60 μg/ml; and DT-BS-01 at 5 and 20 μg/ml. Controls included a 0.15% DMSO vehicle control, cells grown in medium only and cells exposed to the positive control, ursolic acid at final concentrations of 6 μg/ml. After 6 h of treatment, the plates were centrifuged at 980 rpm for 10 min and the supernatant collected for quantification of VEGF using an ELISA kit (ThermoFisher Scientific, Johannesburg, South Africa) (Thermo Fisher, 2017). The cells viability was further determined using XTT at a final concentration of 0.3 mg/ml. The quantification of VEGF was performed according to the manufacturer's protocol (Novex® Cat #KHG0111) using a VEGF standard curve.

in vitro = assay type: cell-based; conditions: human
Description: as §4
The levels of VEGF secreted by UCT-MEL-1 and HaCat cells were determined after 6 h incubation with B. saligna and DT-BS-01. […] The HaCat cell viability was determined after treatment with the various samples and controls in order to determine whether inhibition of VEGF could have been due to a decrease in cell viability. […]

[8] = Nitric oxide scavenging activity (Griess reaction)
Description: Briefly, 90 μl of distilled water was added to the top row of a 96-well microtitre plate and 50 μl to the rest of the wells in the plate. […] Ethanol was used as the negative control. To each well 50 μl sodium nitroprusside (10 mM) was added and the plates were incubated at room temperature for 90 min. Thereafter, 100 μl Griess reagent was added to all the wells, except for the blank plates where distilled water was added. […] All samples were tested in triplicate. The percentage inhibition of the samples was calculated using the below equation.
Where Abscontrol is the absorbance of NO radical+ethanol control; Absample is the absorbance of (NO radical+sample OR positive control)−(blank values of corresponding sample). The IC50 values for each sample were calculated using GraphPad Prism 4 software.

SMILES: CC1(C)CC[C@]2(C(=O)O)CC[C@]3(C)C(=CC[C@@H]4[C@@]5(C)CC[C@H](O)C(C)(C)[C@@H]5CC[C@]43C)[C@@H]2C1 [oleanolic acid]
- angiogenic potential / capillary density in CAM (SK-MEL-2 melanoma): able to reduce the angiogenic potential

SMILES: Cc1c2oc3c(C)ccc(C(=O)N[C@@H]4C(=O)N[C@H](C(C)C)C(=O)N5CCC[C@H]5C(=O)N(C)CC(=O)N(C)[C@@H](C(C)C)C(=O)O[C@@H]4C)c3nc-2c(C(=O)N[C@@H]2C(=O)N[C@H](C(C)C)C(=O)N3CCC[C@H]3C(=O)N(C)CC(=O)N(C)[C@@H](C(C)C)C(=O)O[C@@H]2C)c(N)c1=O [Actinomycin D] (I: T[dV]P[Sar][NMeV] / II: T[dV]P[Sar][NMeV]; ester I:1-I:C, II:1-II:C; linker I:N-II:N via Actinocin(9to1))
- selectivity index (SI) [1]: 3.83
- IC50 on HaCat cells [2]: 0.0092 ± 6.88e-05 µg/mL (≈ 7.33 nM)
- cell morphology, HaCat (HaCat cells [3]): displayed characteristic signs of apoptosis
- cell morphology, UCT-MEL-1 (UCT-MEL-1 cells [4]): displayed characteristic signs of apoptosis
- cells in late apoptosis, HaCat (HaCat cells [5]): 90.6%
- cells in late apoptosis, UCT-MEL-1 (UCT-MEL-1 cells [6]): 99.2%

SMILES: C[C@H]1[C@H](C)CC[C@]2(C(=O)O)CC[C@]3(C)C(=CC[C@@H]4[C@@]5(C)CC[C@H](O)C(C)(C)[C@@H]5CC[C@]43C)[C@H]12 [ursolic acid]
- inhibition at 6 µg/mL [7]: 16 ± 0.93%
- viability at 6 h, 6 μg/ml (in vitro): 96 ± 3.62%
- angiogenic potential / capillary density in CAM (SK-MEL-2 melanoma): did not inhibit the density of the capillaries

- NO IC50 ± SD ([8]; NO radical scavenging): 62.46 ± 0.46 µg/mL
SMILES: O=C1O[C@H]([C@@H](O)CO)C(O)=C1O [ascorbic acid]
- NO radical scavenging activity ([8]; 500 μg/ml): 75.70±0.15%
